Assay results published in article PMC9650428, “Mutagenesis and functional analysis of SotB: A multidrug transporter of the major facilitator superfamily from Escherichia coli” (Frontiers in Microbiology, 2022).
Numbering of substitutions follows the chain as printed. Where two headings read alike, the source gives them in different places.

Columns and labels:
FucP = molecular target: FucP; set-up: method as in Dang et al., 2010; conditions: ref Dang et al., 2010; read-out: Binding affinity between FucP and the substrate; cited from earlier work
SotB [1] = molecular target: T1, SotB (Escherichia coli, UniProt P31122); conditions: ref Koita and Rao, 2012; cited from earlier work
T1 construct: The full-length sotB and lapC genes from the E. coli MG1655 genome were subcloned into the cloning vector pET28a; 8xHis (C); made in house; host or cells: E. coli C43(DE3)
T1 sequence (P31122 whole entry): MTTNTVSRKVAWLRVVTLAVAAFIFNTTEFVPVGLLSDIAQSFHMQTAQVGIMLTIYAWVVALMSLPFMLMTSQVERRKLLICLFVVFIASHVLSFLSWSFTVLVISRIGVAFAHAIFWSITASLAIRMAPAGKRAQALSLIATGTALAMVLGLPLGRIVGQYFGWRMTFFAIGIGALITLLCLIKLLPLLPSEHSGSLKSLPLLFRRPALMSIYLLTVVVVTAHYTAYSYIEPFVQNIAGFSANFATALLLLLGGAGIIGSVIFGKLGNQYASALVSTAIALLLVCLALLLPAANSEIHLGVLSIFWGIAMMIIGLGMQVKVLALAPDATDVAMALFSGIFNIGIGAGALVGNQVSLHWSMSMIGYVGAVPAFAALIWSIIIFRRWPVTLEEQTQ

XlyE = molecular target: XlyE; set-up: method as in Sun et al., 2012; conditions: ref Sun et al., 2012; read-out: Binding affinity between XlyE and its substrate; cited from earlier work
SotB [2] = molecular target: T1, SotB; assay: SPR affinity assay, wild-type SotB; type: binding
Protocol: (§1) The instrument used in surface plasmon resonance (SPR) affinity assays was OpenSPR (Nicoya, Canada) and the chip used was COOH sensor chip (Nicoya, Canada). SotB and its variants were as ligands. IPTG, L-arabinose, D-xylose, D-glucose, D-fructose, and D-mannose were as small molecules. Using HSB-EP buffer (10 mM HEPES, 150 mM NaCl, 3 mM EDTA, 0.005% Tween-20, pH7.4) as test buffer and setting flow rate 150 μl/min after installed COOH chip according to OpenSPRTM instrument standard operating procedure. After the signal baseline was reached, loading 200 μl 80% isopropyl alcohol and ran for 10 s to drain bubbles. After reaching baseline, the sample ring was rinsed with HSB-EP buffer and emptied with air. After the signal reached the baseline, loading 200 μl EDC (400 mM, Sigma)/NHS (100 mM, Sigma; 1:1) solution with a flow rate 20 μl/min for 4 min. Then, loading 200 μl ligand (SotB/SotB variants) diluted by the activation buffer (sodium acetate, 10 mM, pH3.5) and ran for 4 min (20 μl/min). Then the sample ring was rinsed with HSB-EP buffer and emptied with air. Loading 200 μl 1 M ethanolamine (Sigma) blocking solution (20 μl/min, 4 min), rinsed the sample ring with HSB-EP buffer, and emptied the sample ring with air. Observing baseline for 5 min to ensure stability. The small molecules were diluted with PBS buffer (2 mM of KH2PO4, 10 mM of Na2HPO4, 2.7 mM of KCl, and 137 mM of NaCl at pH 7.4), and the concentration was shown in the experimental results. The flow rate for small molecules was performed at 20 μl/min. The binding time of small molecule and ligand was 240 s, and the dissociation was 240 s. The analysis software used for the experimental results was TraceDrawer, and the analysis method was one-to-one analysis model.

[3] = test system: intact E. coli MG1655 strain; assay: Growth curve (L-arabinose inhibition / D-xylose competition) assay, intact MG1655; type: cell-based, Escherichia coli
Excerpt: In the process of sotB gene knockout, two plasmids were introduced into E. coli MG1655 strain: the plasmid pEcCas expressing Cas9 protein (kanamycin resistance) and the plasmid pEcgRNA/sotB expressing related gRNA (spectinomycin resistance). The pEcCas plasmid was successfully eliminated in this study. […] Thus, the sotB-deletion strain has resistance to spectinomycin. In order to carry out the related L-arabinose inhibition assay more strictly, the same plasmid (pEcgRNA/sotB) was then transformed into intact E. coli MG1655 cells, and the growth conditions of the two strains were measured as follows: The E. coli MG1655 cells (intact cells and sotB-deletion cells) were grown in liquid LB medium containing spectinomycin (50 μg/ml) at 37°C for overnight. The cells were then diluted to an OD600 value of 0.8 with liquid LB medium containing spectinomycin (50 μg/ml). Then, the cells were further diluted 1,000 times with liquid LB medium containing spectinomycin (50 μg/ml). The diluted cells were added to a 96-well plate (200 μl/well). Then, L-arabinose was added with final concentrations of 0 μM, 10 μM, 100 μM, 1 mM, 10 mM, and 100 mM, respectively. The 96-well plate was incubated at 37°C, and the OD600 value was measured every 1 h with a microplate reader. For the competition assay, the intact MG1655 cells diluted 1,000 times were divided into two parts and then added into 96-well plate (200 μl/well). One part was directly added with D-xylose at a final concentration of 0, 1, and 10 mM, respectively; the other part was first added with L-arabinose at a final concentration of 10 mM, then D-xylose was added with final concentrations of 0, 1, and 10 mM, respectively. The method of growth curve measurement is the same as above. All the experiments were repeated at least three times.

SotB W119A = molecular target: T2, SotB W119A (Escherichia coli, UniProt P31122, W119A); assay: SPR affinity assay, SotB variant W119A; conditions: read-out: KD, binding affinity with W119A
T2 construct: The full-length sotB and lapC genes from the E. coli MG1655 genome were subcloned into the cloning vector pET28a; 8xHis (C); made in house; host or cells: E. coli C43(DE3)
T2 sequence (P31122 1-396 W119A): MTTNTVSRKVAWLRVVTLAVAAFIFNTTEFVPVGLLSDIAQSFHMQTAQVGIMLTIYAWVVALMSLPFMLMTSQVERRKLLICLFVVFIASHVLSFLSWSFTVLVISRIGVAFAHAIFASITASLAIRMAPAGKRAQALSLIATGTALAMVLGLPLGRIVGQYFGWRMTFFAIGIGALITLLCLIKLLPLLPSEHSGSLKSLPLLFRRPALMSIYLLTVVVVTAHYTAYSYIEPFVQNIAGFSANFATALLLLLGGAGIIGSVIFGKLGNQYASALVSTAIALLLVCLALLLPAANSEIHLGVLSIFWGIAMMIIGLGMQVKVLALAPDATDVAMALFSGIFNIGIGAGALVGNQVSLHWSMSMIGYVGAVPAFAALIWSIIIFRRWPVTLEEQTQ
Protocol: as §1, with “The small molecules were diluted with PBS buffer (2 mM of KH2PO4, 10 mM of Na2HPO4, 2.7 mM of KCl, and 137 mM of NaCl at pH 7.4), and the concentration was shown in the experimental results. The flow rate for small molecules was performed at 20 μl/min. The binding time of small molecule and ligand was 240 s, and the dissociation was 240 s. The analysis software used for the experimental results was TraceDrawer, and the analysis method was one-to-one analysis model.” left out

SotB N343A = molecular target: T3, SotB N343A (Escherichia coli, UniProt P31122, N343A); assay: SPR affinity assay, SotB variant N343A; type: binding; conditions: SotB variant N343A, read-out: KD, binding affinity with N343A
T3 construct: The full-length sotB and lapC genes from the E. coli MG1655 genome were subcloned into the cloning vector pET28a; 8xHis (C); made in house; host or cells: E. coli C43(DE3)
T3 sequence (P31122 1-396 N343A): T2 sequence (P31122 1-396 W119A) with A119W, N343A
Protocol: as §1

SotB H115A = molecular target: T4, SotB H115A (Escherichia coli, UniProt P31122, H115A); assay: SPR affinity assay, SotB variant H115A; type: binding; conditions: SotB variant H115A, read-out: KD, binding affinity with H115A
T4 construct: The full-length sotB and lapC genes from the E. coli MG1655 genome were subcloned into the cloning vector pET28a; 8xHis (C); made in house; host or cells: E. coli C43(DE3)
T4 sequence (P31122 1-396 H115A): T2 sequence (P31122 1-396 W119A) with H115A, A119W
Protocol: as §1

SotB S339A = molecular target: T5, SotB S339A (Escherichia coli, UniProt P31122, S339A); assay: SPR affinity assay, SotB variant S339A; conditions: read-out: KD, binding affinity with S339A
T5 construct: The full-length sotB and lapC genes from the E. coli MG1655 genome were subcloned into the cloning vector pET28a; 8xHis (C); made in house; host or cells: E. coli C43(DE3)
T5 sequence (P31122 1-396 S339A): T2 sequence (P31122 1-396 W119A) with A119W, S339A
Protocol: as §1, with “The small molecules were diluted with PBS buffer (2 mM of KH2PO4, 10 mM of Na2HPO4, 2.7 mM of KCl, and 137 mM of NaCl at pH 7.4), and the concentration was shown in the experimental results. The flow rate for small molecules was performed at 20 μl/min. The binding time of small molecule and ligand was 240 s, and the dissociation was 240 s. The analysis software used for the experimental results was TraceDrawer, and the analysis method was one-to-one analysis model.” left out

SotB E29A = molecular target: T6, SotB E29A (Escherichia coli, UniProt P31122, E29A); assay: SPR affinity assay, SotB variant E29A; conditions: read-out: KD, binding affinity with E29A
T6 construct: The full-length sotB and lapC genes from the E. coli MG1655 genome were subcloned into the cloning vector pET28a; 8xHis (C); made in house; host or cells: E. coli C43(DE3)
T6 sequence (P31122 1-396 E29A): T2 sequence (P31122 1-396 W119A) with E29A, A119W
Protocol: as §1, with “The small molecules were diluted with PBS buffer (2 mM of KH2PO4, 10 mM of Na2HPO4, 2.7 mM of KCl, and 137 mM of NaCl at pH 7.4), and the concentration was shown in the experimental results. The flow rate for small molecules was performed at 20 μl/min. The binding time of small molecule and ligand was 240 s, and the dissociation was 240 s. The analysis software used for the experimental results was TraceDrawer, and the analysis method was one-to-one analysis model.” left out

MdfA = molecular target: MdfA; set-up: method as in Heng et al., 2015; conditions: ref Heng et al., 2015; read-out: Binding affinity between MdfA and the substrate; cited from earlier work
SotB [4] = molecular target: T1, SotB; assay: Cell based radiotracer uptake assay; conditions: E. coli C43(DE3), 0.1 μM tracer, 1 h, p < 0.01
Protocol: The cell-based uptake assay was performed with the following protocol. Plasmids pET28a and pET28a/sotB were transformed into E. coli C43(DE3) competent cells, respectively. Then, these two kinds of cells were grown in LB medium at 37°C and induced with 0.2 mM IPTG for 1 h, when the cell density reached an OD600 of about 1.5. Cells were then harvested by centrifugation. After being washed three times with MK buffer (150 mM KCl, 5 mM MES, pH 6.5), the cells were resuspended in the same buffer to an OD600 of 2.0. To measure the transport activity of SotB protein, took 5 ml of the above cell suspension, respectively, and added ^3H-L-arabinose (American Radiolabeled Chemicals) at a final concentration of 0.1 μM. All the reactions lasted 1 h and were stopped by diluting the cell suspension with 5 ml ice-cold MK buffer. Cells were then harvested by centrifugation. After being washed three times with ddH2O, the cells were resuspended in 5 ml ddH2O, respectively. Then the cells were added to the sample bottle, respectively, and mixed with the same volume of excess scintillation, and then taken for liquid scintillation counting. All the experiments were repeated at least three times.

MelB = molecular target: MelB; set-up: method as in Ethayathulla et al., 2014; conditions: ref Ethayathulla et al., 2014; read-out: Binding affinity between MelB and the substrate; cited from earlier work
[5] = SPR, wild-type SotB immobilised, one-to-one model, read-out: KD (equilibrium dissociation constant), binding affinity with SotB

Compound: C[C@H](O)[C@@H](O)[C@@H](O)[C@H](O)C=O [fucose]
- Kd (FucP): 0.47 mM

Compound: O=C[C@H](O)[C@@H](O)[C@H](O)CO [D-xylose]
- Transport by SotB (SotB [1]): cannot transport
- Kd (XlyE): 0.35 mM
- Binding affinity to SotB, fold higher than that of L-arabinose to SotB (SotB [2]; SPR, wild-type SotB): 8.7 fold
- Kd (SotB [2]; [5]): 0.47 mM
- Effect on growth (OD600 growth curve) ([3]; intact MG1655, 1 mM D-xylose, without L-arabinose): did not cause any growth inhibition
- Effect on growth (OD600 growth curve) ([3]; intact MG1655, 10 mM D-xylose in the presence of 10 mM L-arabinose): inhibit the growth
- Effect on growth (OD600 growth curve) ([3]; intact MG1655, 10 mM D-xylose, without L-arabinose): did not cause any growth inhibition

Compound: CC(C)S[C@@H]1O[C@H](CO)[C@H](O)[C@H](O)[C@H]1O [IPTG, isopropyl-β-D-1-thiogalactopyranoside]
- Binding affinity with SotB, fold lower than that of L-arabinose with SotB (SotB [2]; SPR, wild-type SotB): ~2.5 fold
- Kd (SotB [2]; [5]): 10.2 mM
- Kd (SotB W119A): 6.7 mM
- Kd (SotB N343A): 15 mM
- Kd (SotB H115A): 13.7 mM
- Kd (SotB S339A): 7.6 mM
- Kd (SotB E29A): 7.6 mM

Compound: O=C(CO)[C@@H](O)[C@H](O)[C@H](O)CO [D-fructose]
- Kd (SotB [2]): 6.6 mM

Compound: OC[C@H]1OC(O)[C@@H](O)[C@@H](O)[C@@H]1O (stereo partly drawn) [D-mannose]
- Kd (SotB [2]; [5]): 3.1 mM

Compound: O=C(N[C@H](CO)[C@H](O)c1ccc([N+](=O)[O-])cc1)C(Cl)Cl [Chloramphenicol]
- Kd (MdfA): 0.075 mM

Compound: OC[C@H]1OC(O)[C@H](O)[C@@H](O)[C@@H]1O (stereo partly drawn) [D-glucose]
- Kd (SotB [2]; [5]): 2.6 mM

Compound: ^3H-L-arabinose
- Accumulation in cells expressing wild-type SotB relative to empty vector pET28a (SotB [4]): significant reduced accumulation

Compound: OC[C@H]1O[C@H](OCC2O[C@@H](O)[C@H](O)[C@@H](O)[C@@H]2O)[C@H](O)[C@@H](O)[C@H]1O (stereo partly drawn) [melibiose]
- Kd (MelB): 1 mM
